Test results as given in ChEMBL document CHEMBL4261594, “Unexpected AChE inhibitory activity of (2E)α,β-unsaturated fatty acids” (Bioorg Med Chem Lett, 2018).

Legend:
Acetylcholinesterase [1] = molecular target: T1, Acetylcholinesterase (Electrophorus electricus, UniProt O42275); assay: Inhibition of electric eel AChE using acetylthiocholine iodide as substrate preincubated for 20 mins followed by substrate addition and measured at 1 min intervals for 30 mins by Ellman's method
Acetylcholinesterase [2] = molecular target: T1, Acetylcholinesterase; assay: Mixed type inhibition of electric eel AChE using acetylthiocholine iodide as substrate preincubated for 20 mins followed by substrate addition and measured at 1 min intervals for 30 mins by Dixon plot analysis
Acetylcholinesterase [3] = molecular target: T1, Acetylcholinesterase; assay: Mixed type inhibition of electric eel AChE using acetylthiocholine iodide as substrate preincubated for 20 mins followed by substrate addition and measured at 1 min intervals for 30 mins by Cornish-Bowden plot analysis

T1 sequence (O42275 whole entry): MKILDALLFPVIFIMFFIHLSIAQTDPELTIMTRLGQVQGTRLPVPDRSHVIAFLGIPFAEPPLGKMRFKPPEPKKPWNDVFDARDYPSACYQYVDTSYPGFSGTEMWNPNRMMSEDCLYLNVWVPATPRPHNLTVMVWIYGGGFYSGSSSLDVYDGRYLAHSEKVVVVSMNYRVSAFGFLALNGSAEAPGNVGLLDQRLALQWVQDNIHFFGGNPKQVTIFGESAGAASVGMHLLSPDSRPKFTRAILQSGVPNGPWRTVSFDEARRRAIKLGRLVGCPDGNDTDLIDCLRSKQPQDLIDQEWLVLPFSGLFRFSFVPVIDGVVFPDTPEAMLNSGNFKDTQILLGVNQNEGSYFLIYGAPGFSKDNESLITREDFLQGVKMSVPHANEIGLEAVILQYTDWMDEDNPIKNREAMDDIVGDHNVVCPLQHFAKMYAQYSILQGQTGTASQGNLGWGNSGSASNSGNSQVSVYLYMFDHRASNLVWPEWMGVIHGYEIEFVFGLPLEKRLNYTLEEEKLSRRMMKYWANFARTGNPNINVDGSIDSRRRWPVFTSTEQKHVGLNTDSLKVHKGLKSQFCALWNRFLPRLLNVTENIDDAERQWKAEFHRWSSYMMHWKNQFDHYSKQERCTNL

In the case of `CCCCCCCCCCCCCCCCCCCCCC(=O)O` [BEHENIC ACID], the IC50 (Acetylcholinesterase [1]) is reported as “Nd(Insoluble)”.
`CCCCCCCCCCCCCCCCC/C=C/C(=O)O` gave an IC50 (Acetylcholinesterase [1]; read-out: IC50) of 5 µM, a Ki (Acetylcholinesterase [2]) of 1.51 µM and a Ki (Acetylcholinesterase [3]) of 7.15 µM.
In the case of `CCCCCCCCCCCCCCCCCC(=O)O` [STEARIC ACID], the IC50 (Acetylcholinesterase [1]; read-out: IC50) is reported as 7.5 µM, the Ki (Acetylcholinesterase [2]) is reported as 4.4 µM and the Ki (Acetylcholinesterase [3]) is reported as 3.62 µM.
`CCCCCCCCCCCCCCCCCCCC(=O)O` [ARACHIDIC ACID] showed an IC50 (Acetylcholinesterase [1]; read-out: IC50) of 12.8 µM.
`CCCCCCCCCCCCC/C=C/C(=O)O` was tested, and the IC50 (Acetylcholinesterase [1]; read-out: IC50) was 7.9 µM.
Molecule `CCCCCCCCCCCCCCC/C=C/C(=O)O` has an IC50 (Acetylcholinesterase [1]; read-out: IC50) of 4.3 µM, a Ki (Acetylcholinesterase [2]) of 3.21 µM and a Ki (Acetylcholinesterase [3]) of 5.51 µM.
For `CCCCCCCCCCCCCCCC(=O)O` [PALMITIC ACID], the IC50 (Acetylcholinesterase [1]; read-out: IC50) was 10.1 µM.
In the case of `CCCCCCCCCCCCCCCCCCC/C=C/C(=O)O`, the IC50 (Acetylcholinesterase [1]; read-out: IC50) is reported as 11.7 µM.
